The results in this text go back to patent US20240409585A1, “MACROCYCLIC IMMUNOMODULATORS” (priority 2021, published 2024).

Bridge positions count the residues as written; N and C are the ends. Square brackets hold non-standard residues; d marks the D form. Peptide text beside a SMILES is read from it. * marks the point of attachment. ξ: configuration not given here. Phe(4-COOH) = N[C@@H](Cc1ccc(C(=O)O)cc1)C(=O)O; Bip = N[C@@H](Cc1ccc(-c2ccccc2)cc1)C(=O)O; Phe(3-CN) = N#Cc1cccc(C[C@H](N)C(=O)O)c1; Phe(3-OMe) = COc1cccc(C[C@H](N)C(=O)O)c1; Phe(4-CN) = N#Cc1ccc(C[C@H](N)C(=O)O)cc1; Phe(3-Me) = Cc1cccc(C[C@H](N)C(=O)O)c1; Gly(cPent) = N[C@H](C(=O)O)C1CCCC1; Val(3-OH) = CC(C)(O)[C@H](N)C(=O)O; h4Pal = N[C@@H](CCc1ccncc1)C(=O)O; aIle = CC[C@@H](C)[C@H](N)C(=O)O; 2Thi = N[C@@H](Cc1cccs1)C(=O)O; Cha = N[C@@H](CC1CCCCC1)C(=O)O; Carboxymethyl = O=C(O)C*; NMeA = CN[C@@H](C)C(=O)O; Dab = NCC[C@H](N)C(=O)O; Dap = NC[C@H](N)C(=O)O; ξV = CC(C)C(N)C(=O)O

T1 sequence (Q15116 25-288): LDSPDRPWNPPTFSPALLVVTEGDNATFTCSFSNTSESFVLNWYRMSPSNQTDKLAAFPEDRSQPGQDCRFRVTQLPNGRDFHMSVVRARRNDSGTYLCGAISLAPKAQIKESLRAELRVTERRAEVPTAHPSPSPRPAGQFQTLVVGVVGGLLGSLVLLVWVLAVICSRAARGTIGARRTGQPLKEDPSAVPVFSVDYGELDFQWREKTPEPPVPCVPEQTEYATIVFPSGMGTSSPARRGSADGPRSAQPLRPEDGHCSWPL

The test has as its target T1, PE-labeled human PD-L1-Ig binding to Jurkat cell line over-expressing human PD-1 (Jurkat-PD-1) (Homo sapiens, UniProt Q15116).
T1 construct: expressed in transfected cells; host or cells: Jurkat
Put plainly: Jurkat-PD-1 Cell Binding High-Content Screening Assay (CBA): Method 1. To be noted: Jurkat-hPD-1 cells, PE-labeled PD-L1-Ig 20 nM final; read-out: Jurkat HPDL1 PD1 IC50 (uM) (Method 1).
Broadly, the IC50 is the concentration that inhibits the measured activity by half. As for `CC(C)C[C@@H]1NC(=O)[C@H](CCN)NC(=O)[C@@H](CC(C)C)NC(=O)[C@H](C)N(C)C(=O)[C@H](CCCNC(=N)N)NC(=O)[C@H](Cc2ccc(-c3ccccc3)cc2)NC(=O)[C@H](C(C)C)NC(=O)[C@H](Cc2c[nH]c3ccccc23)NC(=O)[C@H](CC(=O)O)NC(=O)[C@H](Cc2cnc[nH]2)NC(=O)[C@H](Cc2ccccc2)NC(=O)CSC[C@@H](C(=O)N[C@@H](C)C(N)=O)NC(=O)[C@H]([C@@H](C)O)NC(=O)[C@H](C(C)C)NC1=O` [Compound 1130] ({CH2CO}-FHDWV[Bip]R[NMeA][dL][Dab]LVTCA-NH2; thioether N-14), the IC50 worked out at 0.18 µM. Under `CC(C)C[C@@H]1NC(=O)[C@H](CCN)NC(=O)[C@@H](CC(C)C)NC(=O)[C@H](C)N(C)C(=O)[C@H](CCCNC(=N)N)NC(=O)[C@H](Cc2ccc(-c3ccccc3)cc2)NC(=O)[C@H](C(C)C)NC(=O)[C@H](Cc2c[nH]c3ccccc23)NC(=O)[C@H](CC(=O)O)NC(=O)[C@H](Cc2ccc(OCC(=O)O)cc2)NC(=O)[C@H](Cc2cnc[nH]2)NC(=O)CSC[C@@H](C(=O)N[C@@H](C)C(N)=O)NC(=O)[C@H]([C@@H](C)O)NC(=O)[C@H](C(C)C)NC1=O` [Compound 1150] ({CH2CO}-HY(Carboxymethyl)DWV[Bip]R[NMeA][dL][Dab]LVTCA-NH2; thioether N-14) stands 0.05 µM; under `CC(=O)NCC[C@H](NC(=O)[C@@H]1CSCC(=O)N[C@@H](Cc2cccs2)C(=O)N[C@@H](Cc2ccc(OCC(=O)O)cc2)C(=O)N[C@@H](CC(=O)O)C(=O)N[C@@H](Cc2cccc(C)c2)C(=O)N[C@@H](Cc2ccc(C(=O)O)cc2)C(=O)N[C@@H](Cc2ccc(-c3ccccc3)cc2)C(=O)N[C@@H](Cc2ccc(OCC(=O)O)cc2)C(=O)N(C)[C@@H](C)C(=O)N[C@H](CC(C)C)C(=O)N[C@@H](CCN)C(=O)N[C@@H](CC2CCCCC2)C(=O)N[C@@H](C(C)(C)O)C(=O)N[C@@H](Cc2cnc[nH]2)C(=O)N1)C(N)=O` [Compound 2163] ({CH2CO}-[2Thi]Y(Carboxymethyl)D[Phe(3-Me)][Phe(4-COOH)][Bip]Y(Carboxymethyl)[NMeA][dL][Dab][Cha][Val(3-OH)]HC[Dab](Ac)-NH2; thioether N-14), 0.01 µM; under `Cc1cccc(C[C@@H]2NC(=O)[C@H](CC(=O)O)NC(=O)[C@H](Cc3ccc(OCC(=O)O)cc3)NC(=O)[C@H](CN)NC(=O)CSC[C@@H](C(N)=O)NC(=O)[C@H](CCC(=O)O)NC(=O)[C@H](C(C)C)NC(=O)[C@H](CC3CCCCC3)NC(=O)[C@H](CCN)NC(=O)[C@@H](CC(C)C)NC(=O)[C@H](C)N(C)C(=O)[C@H](Cc3ccc(OCC(=O)O)cc3)NC(=O)[C@H](Cc3ccc(-c4ccccc4)cc3)NC(=O)[C@H](Cc3ccc(OCC(=O)O)cc3)NC2=O)c1` [Compound 1651] ({CH2CO}-[Dap]Y(Carboxymethyl)D[Phe(3-Me)]Y(Carboxymethyl)[Bip]Y(Carboxymethyl)[NMeA][dL][Dab][Cha]VEC-NH2; thioether N-14), 0.1 µM.

As for `CC(C)C[C@@H]1NC(=O)[C@H](CCCNC(=N)N)NC(=O)[C@@H](CC(C)C)NC(=O)[C@H](C)N(C)C(=O)[C@H](CCCNC(=N)N)NC(=O)[C@H](Cc2ccc(-c3ccccc3)cc2)NC(=O)[C@H](C(C)C)NC(=O)[C@H](Cc2c[nH]c3ccccc23)NC(=O)[C@H](CC(=O)O)NC(=O)[C@H](CCc2ccncc2)NC(=O)[C@H](Cc2ccccc2)NC(=O)CSC[C@@H](C(=O)N[C@@H](C)C(N)=O)NC(=O)[C@H]([C@@H](C)O)NC(=O)[C@H](C(C)C)NC1=O` [Compound 1084] ({CH2CO}-F[h4Pal]DWV[Bip]R[NMeA][dL]RLVTCA-NH2; thioether N-14), the IC50 was 0.09 µM. In the case of `CC[C@H](C)[C@@H]1NC(=O)[C@H](Cc2ccc(-c3ccccc3)cc2)NC(=O)[C@H](C(C)C)NC(=O)[C@H](Cc2c[nH]c3ccccc23)NC(=O)[C@H](CC(=O)O)NC(=O)[C@H](Cc2ccc(OCC(=O)O)cc2)NC(=O)[C@H](Cc2ccc(OCC(=O)O)cc2)NC(=O)CSC[C@@H](C(=O)N[C@@H](C)C(N)=O)NC(=O)[C@H]([C@@H](C)O)NC(=O)[C@H](C(C)C)NC(=O)[C@H](CC(C)C)NC(=O)[C@H](CCN)NC(=O)[C@@H](CC(C)C)NC(=O)[C@H](C)N(C)C1=O` [Compound 1568] ({CH2CO}-Y(Carboxymethyl)Y(Carboxymethyl)DWV[Bip]I[NMeA][dL][Dab]LVTCA-NH2; thioether N-14), the IC50 stood at 0.01 µM. Under `COc1cccc(C[C@@H]2NC(=O)[C@H](CC(=O)O)NC(=O)[C@H](Cc3ccc(O)cc3)NC(=O)[C@H](Cc3ccccc3)NC(=O)CSC[C@@H](C(=O)N[C@@H](C)C(N)=O)NC(=O)[C@H](CO)NC(=O)[C@H](C(C)C)NC(=O)[C@H](CC(C)C)NC(=O)[C@H](CC(N)=O)NC(=O)[C@@H](C)NC(=O)[C@H](C)N(C)C(=O)[C@H](C(C)C)NC(=O)[C@H](Cc3ccc(-c4ccccc4)cc3)NC(=O)[C@H](CC(C)C)NC2=O)c1` [Compound 1739] ({CH2CO}-FYD[Phe(3-OMe)]L[Bip]V[NMeA][dA]NLVSCA-NH2; thioether N-14) stands 0.02 µM; under `CC[C@@H](C)[C@@H]1NC(=O)[C@H](Cc2ccc(-c3ccccc3)cc2)NC(=O)[C@H](C2CCCC2)NC(=O)[C@H](Cc2c[nH]c3ccccc23)NC(=O)[C@H](CC(=O)O)NC(=O)[C@H](Cc2ccc(C(=O)O)cc2)NC(=O)[C@H](Cc2ccc(OCC(=O)O)cc2)NC(=O)CSC[C@@H](C(=O)N[C@@H](CCCCN)C(N)=O)NC(=O)[C@H](CO)NC(=O)C(C(C)C)NC(=O)[C@H](CC(C)C)NC(=O)[C@H](CC(N)=O)NC(=O)[C@@H](CC(C)C)NC(=O)[C@H](C)N(C)C1=O` (stereo partly drawn) [Compound 2103] ({CH2CO}-Y(Carboxymethyl)[Phe(4-COOH)]DW[Gly(cPent)][Bip][aIle][NMeA][dL]NL[ξV]SCK-NH2; thioether N-14), 0.04 µM; under `CC(C)C[C@@H]1NC(=O)[C@H](CCN)NC(=O)[C@@H](CC(C)C)NC(=O)[C@H](C)N(C)C(=O)[C@H](CCCNC(=N)N)NC(=O)[C@H](Cc2ccc(-c3ccccc3)cc2)NC(=O)[C@H](C(C)C)NC(=O)[C@H](Cc2c[nH]c3ccccc23)NC(=O)[C@H](CC(=O)O)NC(=O)[C@H](Cc2ccc(C#N)cc2)NC(=O)[C@H](CN)NC(=O)CSC[C@@H](C(=O)N[C@@H](C)C(N)=O)NC(=O)[C@H]([C@@H](C)O)NC(=O)[C@H](C(C)C)NC1=O` [Compound 1444] ({CH2CO}-[Dap][Phe(4-CN)]DWV[Bip]R[NMeA][dL][Dab]LVTCA-NH2; thioether N-14), 0.08 µM. Under `CC(C)C[C@@H]1NC(=O)[C@H](CCN)NC(=O)[C@@H](CC(C)C)NC(=O)[C@H](C)N(C)C(=O)[C@H](CCCNC(=N)N)NC(=O)[C@H](Cc2ccc(-c3ccccc3)cc2)NC(=O)[C@H](C(C)C)NC(=O)[C@H](Cc2cccc(C#N)c2)NC(=O)[C@H](CC(=O)O)NC(=O)[C@H](Cc2ccc(OCC(=O)O)cc2)NC(=O)[C@H](CN)NC(=O)CSC[C@@H](C(=O)N[C@@H](C)C(N)=O)NC(=O)[C@H]([C@@H](C)O)NC(=O)[C@H](C(C)C)NC1=O` [Compound 1449] ({CH2CO}-[Dap]Y(Carboxymethyl)D[Phe(3-CN)]V[Bip]R[NMeA][dL][Dab]LVTCA-NH2; thioether N-14) stands 0.17 µM.
